Results reported in ChEMBL document CHEMBL3885881, “DrugMatrix”.
Several values for one entry are separate records, joined by “and”; a condition that tells them apart may be missing. Equal values may be shown once.

Organism: Rattus norvegicus
Assay: DrugMatrix - Regimen: Daily Repeat
Type: toxicity, organism-based, Sprague-Dawley
Set-up: regimen Daily Repeat, gender Male, age 6-8 weeks
Conditions: in vivo, po, route oral GAVAGE, vehicle .5 % CMC; for BASOPHIL / EOSINOPHIL / ERYTHROCYTE COUNT / HEMATOCRIT / HEMOGLOBIN / LEUKOCYTE COUNT / LYMPHOCYTE / MEAN CORPUSCULAR HEMOGLOBIN / MEAN CORPUSCULAR HEMOGLOBIN CONCENTRATION / MEAN CORPUSCULAR VOLUME / MONOCYTE / NEUTROPHIL / PLATELET COUNT / ABSOLUTE BASOPHIL / ABSOLUTE EOSINOPHIL / ABSOLUTE LYMPHOCYTE / ABSOLUTE MONOCYTE / ABSOLUTE SEGMENTED NEUTROPHIL: tissue Blood; for ALANINE AMINOTRANSFERASE / ALBUMIN / ALKALINE PHOSPHATASE / ASPARTATE AMINOTRANSFERASE / BLOOD UREA NITROGEN / CHLORIDE / CHOLESTEROL / CREATINE PHOSPHOKINASE / CREATININE / GLUCOSE / PHOSPHORUS / POTASSIUM / SODIUM / TOTAL BILIRUBIN / TOTAL PROTEIN / LACTATE DEHYDROGENASE / LIPASE / URIC ACID: tissue Plasma
[1] = 0 mg/kg, 72 h, dose level Control, time 3 day
[2] = 0 mg/kg, 120 h, dose level Control, time 5 day
[3] = 0 mg/kg, 2184 h, dose level Control, time 91 day
[4] = 0 mg/kg, […], dose level Control, time 28 day
[5] = 80 mg/kg, 120 h, dose level Low, time 5 day
[6] = 80 mg/kg, 2184 h, dose level Low, time 91 day

## O=c1cc(-c2ccccc2)oc2ccc3ccccc3c12 [BETA-NAPHTHOFLAVONE]
[1]
  BASOPHIL: 0.52%
  EOSINOPHIL: 0.48%
  ERYTHROCYTE COUNT: 6.68 x10E6/uL
  HEMATOCRIT: 43.07%
  HEMOGLOBIN: 13.48 G/DL
  LEUKOCYTE COUNT: 11.41 x10E3/uL
  LYMPHOCYTE: 80.78%
  MEAN CORPUSCULAR HEMOGLOBIN: 20.2 pg
  MEAN CORPUSCULAR HEMOGLOBIN CONCENTRATION: 31.32 G/DL
  MEAN CORPUSCULAR VOLUME: 64.45 fL
  MONOCYTE: 2.23%
  NEUTROPHIL: 14.73%
  PLATELET COUNT: 1225.83 x10E3/uL
  ALANINE AMINOTRANSFERASE: 44.5 u/L
  ALBUMIN: 3.62 G/DL
  ALKALINE PHOSPHATASE: 404.5 u/L
  ASPARTATE AMINOTRANSFERASE: 71.67 u/L
  BLOOD UREA NITROGEN: 15 mg/dL
  CHLORIDE: 103 MEQ/L
  CHOLESTEROL: 96.83 mg/dL
  CREATINE PHOSPHOKINASE: 236 u/L
  CREATININE: 0.43 mg/dL
  GLUCOSE: 186.83 mg/dL
  PHOSPHORUS: 12.67 mg/dL
  POTASSIUM: 7.1 MEQ/L
  SODIUM: 147.33 MEQ/L
  TOTAL BILIRUBIN: 0.52 mg/dL
  TOTAL PROTEIN: 6.18 G/DL
[2]
  ABSOLUTE BASOPHIL: 92 cells/µL
  ABSOLUTE EOSINOPHIL: 52 cells/µL
  ABSOLUTE LYMPHOCYTE: 6560 cells/µL
  ABSOLUTE MONOCYTE: 160 cells/µL
  ABSOLUTE SEGMENTED NEUTROPHIL: 1130 cells/µL
  BASOPHIL: 1.14% and 0.92%
  EOSINOPHIL: 0.68% and 0.43%
  ERYTHROCYTE COUNT: 7.51 x10E6/uL and 7.03 x10E6/uL
  HEMATOCRIT: 46.04% and 46.55%
  HEMOGLOBIN: 15.62 G/DL and 14.32 G/DL
  LEUKOCYTE COUNT: 8.03 x10E3/uL and 12.22 x10E3/uL
  LYMPHOCYTE: 81.54% and 82.65%
  MEAN CORPUSCULAR HEMOGLOBIN: 20.84 pg and 20.35 pg
  MEAN CORPUSCULAR HEMOGLOBIN CONCENTRATION: 33.94 G/DL and 30.77 G/DL
  MEAN CORPUSCULAR VOLUME: 61.42 fL and 66.28 fL
  MONOCYTE: 2% and 2.28%
  NEUTROPHIL: 14.24% and 12.73%
  PLATELET COUNT: 1427.2 x10E3/uL and 1268.67 x10E3/uL
  ALANINE AMINOTRANSFERASE: 35.6 u/L and 44.5 u/L
  ALBUMIN: 3.64 G/DL and 3.73 G/DL
  ALKALINE PHOSPHATASE: 233 u/L and 340.83 u/L
  ASPARTATE AMINOTRANSFERASE: 81 u/L and 66.5 u/L
  BLOOD UREA NITROGEN: 12 mg/dL and 13.33 mg/dL
  CHLORIDE: 109.4 MEQ/L and 102.17 MEQ/L
  CHOLESTEROL: 47.6 mg/dL and 82.17 mg/dL
  CREATINE PHOSPHOKINASE: 183.2 u/L and 146.67 u/L
  CREATININE: 0.4 mg/dL and 0.35 mg/dL
  GLUCOSE: 134.6 mg/dL and 186.17 mg/dL
  LACTATE DEHYDROGENASE: 89.4 u/L
  LIPASE: 17.2 u/L
  PHOSPHORUS: 13.02 mg/dL and 11.83 mg/dL
  POTASSIUM: 7 MEQ/L and 6.47 MEQ/L
  SODIUM: 149.6 MEQ/L and 148.83 MEQ/L
  TOTAL PROTEIN: 6.06 G/DL and 6.27 G/DL
  URIC ACID: 1.04 mg/dL
[3]
  ABSOLUTE BASOPHIL: 130 cells/µL
  ABSOLUTE EOSINOPHIL: 70 cells/µL
  ABSOLUTE LYMPHOCYTE: 8670 cells/µL
  ABSOLUTE MONOCYTE: 160 cells/µL
  ABSOLUTE SEGMENTED NEUTROPHIL: 1530 cells/µL
  BASOPHIL: 1.13%
  EOSINOPHIL: 0.66%
  ERYTHROCYTE COUNT: 9.13 x10E6/uL
  HEMATOCRIT: 48.47%
  HEMOGLOBIN: 16.56 G/DL
  LEUKOCYTE COUNT: 10.5 x10E3/uL
  LYMPHOCYTE: 81.63%
  MEAN CORPUSCULAR HEMOGLOBIN: 18.16 pg
  MEAN CORPUSCULAR HEMOGLOBIN CONCENTRATION: 34.14 G/DL
  MEAN CORPUSCULAR VOLUME: 53.14 fL
  MONOCYTE: 1.53%
  NEUTROPHIL: 14.71%
  PLATELET COUNT: 1280.22 x10E3/uL
  ALANINE AMINOTRANSFERASE: 28.89 u/L
  ALBUMIN: 3.69 G/DL
  ALKALINE PHOSPHATASE: 101.11 u/L
  ASPARTATE AMINOTRANSFERASE: 70.67 u/L
  BLOOD UREA NITROGEN: 16.78 mg/dL
  CHLORIDE: 104.56 MEQ/L
  CHOLESTEROL: 58.78 mg/dL
  CREATINE PHOSPHOKINASE: 91.22 u/L
  CREATININE: 0.61 mg/dL
  GLUCOSE: 142.33 mg/dL
  LACTATE DEHYDROGENASE: 81.67 u/L
  LIPASE: 13 u/L
  PHOSPHORUS: 7.54 mg/dL
  POTASSIUM: 6.27 MEQ/L
  SODIUM: 149.89 MEQ/L
  TOTAL BILIRUBIN: 0.19 mg/dL
  TOTAL PROTEIN: 7.12 G/DL
  URIC ACID: 0.97 mg/dL
[4]
  ABSOLUTE BASOPHIL: 150 cells/µL
  ABSOLUTE EOSINOPHIL: 54 cells/µL
  ABSOLUTE LYMPHOCYTE: 8890 cells/µL
  ABSOLUTE MONOCYTE: 190 cells/µL
  ABSOLUTE SEGMENTED NEUTROPHIL: 2250 cells/µL
  BASOPHIL: 1.26%
  EOSINOPHIL: 0.46%
  ERYTHROCYTE COUNT: 8.34 x10E6/uL
  HEMATOCRIT: 48.66%
  HEMOGLOBIN: 16.04 G/DL
  LEUKOCYTE COUNT: 11.58 x10E3/uL
  LYMPHOCYTE: 76.74%
  MEAN CORPUSCULAR HEMOGLOBIN: 19.2 pg
  MEAN CORPUSCULAR HEMOGLOBIN CONCENTRATION: 32.92 G/DL
  MEAN CORPUSCULAR VOLUME: 58.32 fL
  MONOCYTE: 1.76%
  NEUTROPHIL: 19.44%
  PLATELET COUNT: 1282.6 x10E3/uL
  ALANINE AMINOTRANSFERASE: 27 u/L
  ALBUMIN: 3.68 G/DL
  ALKALINE PHOSPHATASE: 146.2 u/L
  ASPARTATE AMINOTRANSFERASE: 66.6 u/L
  BLOOD UREA NITROGEN: 12.4 mg/dL
  CHLORIDE: 104.6 MEQ/L
  CHOLESTEROL: 59.6 mg/dL
  CREATINE PHOSPHOKINASE: 121.8 u/L
  CREATININE: 0.6 mg/dL
  GLUCOSE: 143 mg/dL
  LACTATE DEHYDROGENASE: 87.8 u/L
  LIPASE: 17.4 u/L
  PHOSPHORUS: 8.68 mg/dL
  POTASSIUM: 6.02 MEQ/L
  SODIUM: 152.8 MEQ/L
  TOTAL BILIRUBIN: 0.26 mg/dL
  TOTAL PROTEIN: 6.92 G/DL
  URIC ACID: 0.52 mg/dL
[5]
  ABSOLUTE BASOPHIL: 80 cells/µL
  ABSOLUTE EOSINOPHIL: 62 cells/µL
  ABSOLUTE LYMPHOCYTE: 9510 cells/µL
  ABSOLUTE MONOCYTE: 180 cells/µL
  ABSOLUTE SEGMENTED NEUTROPHIL: 1430 cells/µL
  BASOPHIL: 0.74%
  EOSINOPHIL: 0.56%
  ERYTHROCYTE COUNT: 7.55 x10E6/uL
  HEMATOCRIT: 45.54%
  HEMOGLOBIN: 15.6 G/DL
  LEUKOCYTE COUNT: 11.31 x10E3/uL
  LYMPHOCYTE: 84.24%
  MEAN CORPUSCULAR HEMOGLOBIN: 20.68 pg
  MEAN CORPUSCULAR HEMOGLOBIN CONCENTRATION: 34.26 G/DL
  MEAN CORPUSCULAR VOLUME: 60.36 fL
  MONOCYTE: 1.58%
  NEUTROPHIL: 12.46%
  PLATELET COUNT: 1331 x10E3/uL
  ALANINE AMINOTRANSFERASE: 31.8 u/L
  ALBUMIN: 3.5 G/DL
  ALKALINE PHOSPHATASE: 221.2 u/L
  ASPARTATE AMINOTRANSFERASE: 79.4 u/L
  BLOOD UREA NITROGEN: 10.4 mg/dL
  CHLORIDE: 108.8 MEQ/L
  CHOLESTEROL: 59.4 mg/dL
  CREATINE PHOSPHOKINASE: 166.8 u/L
  CREATININE: 0.52 mg/dL
  GLUCOSE: 110.6 mg/dL
  LACTATE DEHYDROGENASE: 103.8 u/L
  LIPASE: 24.4 u/L
  PHOSPHORUS: 11.66 mg/dL
  POTASSIUM: 6.5 MEQ/L
  SODIUM: 151 MEQ/L
  TOTAL BILIRUBIN: 0.2 mg/dL
  TOTAL PROTEIN: 6.1 G/DL
  URIC ACID: 0.72 mg/dL
[6]
  ABSOLUTE BASOPHIL: 410 cells/µL
  ABSOLUTE EOSINOPHIL: 110 cells/µL
  ABSOLUTE LYMPHOCYTE: 11200 cells/µL
  ABSOLUTE MONOCYTE: 290 cells/µL
  ABSOLUTE SEGMENTED NEUTROPHIL: 3040 cells/µL
  BASOPHIL: 2.71%
